Data on 4 molecules can be found in patent US20070258970A1, “Methods for Inhibiting Hiv and Other Viral Infections by Modulating Ceramide Metabolism” (priority 2003, published 2007).

The subject of data set [1] is HIV-1. The class given is cell-based.
For another data set, the system named is HIV-1 gp160 (HXB2). The data set is described as follows: Cell-cell fusion assay (HeLa cells expressing HIV-1 gp160 with TMZ target cells, luciferase). To be noted: pretreated target cells, alone or combined; FIG. 8B.
Data set [2] relates to ceramide. In words: Ceramide quantitation by [3H]sphingosine incorporation in HeLa-derived target cells. The class given is cell-based.
The next data set has as its system Sendai virus. The data set is described as follows: R18 fluorescence dequenching viral fusion assay. To be noted: increasing concentrations, 37° C., pH7; FIG. 9.
The test system of another data set is CCR5. The data set is described as follows: Flow cytometry of cell surface CCR5 on TMZ cells. The class given is cell-based. The protocol: (§1) TMZ cells, harvested with trypsin-EDTA in PBS, were centrifuged at 450×g and resuspended at 10^6 cells/ml in PBS-5% FBS-5% normal mouse serum. After incubation for 15 min at room temperature, the cells were washed twice in PBS-0.1% bovine serum albumin and resuspended in 100 μl of PBS-5% FBS-5% normal mouse serum. 20 μl of Phycoerythrin (PE)-conjugated mouse immunoglobulin G (IgG) anti-CD4, PE-conjugated mouse IgG anti-CXCR4, or PE-conjugated mouse IgG anti-CCR5, from Becton Dickenson (San Jose, Calif.) was then added to each sample. Cells were incubated at 4° C. for 1 hour and washed twice in PBS-0.1% BSA. Samples were fixed in PBS-1% paraformaldehyde and resuspended in 1 ml of PBS to be read by a FACScalibur instrument (Becton Dickinson, San Jose, Calif.) at 10,000 events/sample with respect to unlabeled cells.
(§2) Increasing ceramide concentrations is thought to perturb membrane properties due to the hydrophobic nature of this lipid and the tendency to self aggregate. The possible consequences of membrane altering properties on the cell surface expression of the main HIV receptors, CD4, X4 and R5, was investigated. […] CD4 expression decreases in a dose dependent manner from a control level of 100% to levels of 70%, 57% and 27% following treatment with 2, 5 and 10 μM of a 4-HPR compound respectively.

In data set [3] the test system is ceramide. The data set is described as follows: Ceramide level in monocyte derived macrophages. To be noted: 5 uM.
For another data set, the system named is CXCR4. The data set is described as follows: Flow cytometry of cell surface CXCR4 on TMZ cells. In kind it is cell-based. To be noted: 2 μM. The protocol:
as §1, §2
A general note: Flow cytometry measures light scatter and fluorescence of single cells or particles in a stream.

In the next data set the test system is CD4. In words: Flow cytometry of cell surface CD4 on TMZ cells. In kind it is cell-based. Here is the method: as §1, §2
A further data set has as its system VSV pseudotyped HIV-1. In kind it is cell-based.
The subject of data set [4] is HIV-1. The data set is described as follows: HIV-1 infection of primary monocyte derived macrophages. In kind it is cell-based. To be noted: low uM concentrations, pretreated 2 days.
The subject of another data set is cells. In words: Apoptotic effects on the cells by annexin 5 staining / toxicity. To be noted: at the low concentrations that inhibit HIV-1. In kind it is cell-based.

Protocol for HIV-1 gp160 (HXB2): Target TMZ cells were plated at 0.75×10^4 cells per well in a 96 well plate and treated with a 4-BPR compound for 48 hours with 5% CO2 in a humidified incubator. HeLa cells expressing HUV-1 gp160 (HXB2) in addition to gag, tat, rev and nef were then cocultured with target cells containing the tat inducible luciferase reporter cassette. Envelope and target cells were cocultivated at 37° C. for 7 hours. Luciferase activity was then measured using a Promega (Madison, Wis.) luciferase assay system kit. Briefly, the supernatants were removed and the cells were lysed with Steady Glo luciferase assay system. The light intensity of each well was measured on a Reporter luminometer. Mock-infected cells were used to determine background luminescence. All infectivity assays were performed in duplicate.
Briefly, HeLa cells expressing HIV-1 gp160 (HXB2) in addition to gag, tat, rev and nef were cocultured with CD4 positive target cells containing the tat inducible luciferase reporter cassette. […] Envelope and target cells were cocultivated at 37° C. for 7 hours following which the cells were lysed and luciferase activity quantitated.
Protocol for Sendai virus: To further probe how ceramide accumulation might inhibit viral fusion, viral fusion was monitored using a well-established octadecyl rhodamine (R18) fluorescence dequenching (R18-fdq) assay. In this assay system R18-labeled Sendai virus was incubated with control or a 4-HPR compound treated cells for 30 min at 4° C. to allow for virus binding. Small aliquots of virus-cell complexes were added to a stirred cuvette at 37° C. containing 2 ml buffer at pH7. Fluorescence increases were recorded with a 1 sec time resolution in a SLM8000 spectrofluorimeter (SLMInstruments, Urbana, Ill.). […] This increase in fluorescence reflects dequenching of R18 upon the merging of viral and cell membranes.

For the molecule `CCCCCCCCCCCCC/C=C/[C@@H](O)[C@H](CO)NC(=O)CCCCCCCCCCCCCCC` [C16, C16 ceramide], the “inhibition of HIV infection” value with HIV-1 [1] (pretreatment with 1 μM lipid for 10 minutes at 37° C., FIG. 5) is reported as “approximately 60%”.

Regarding `CCCCCCCCCCCCCCCC(=O)NC(CN1CCOCC1)C(O)c1ccccc1` (centres unmarked) [PPMP, 1-phenyl-2-hexadecanoylamino-3-morpholino-1-propanol], the inhibition of fusion result in the data set on HIV-1 gp160 (HXB2) is given as “ineffective”.

With sphingomyelinase, in the data set with HIV-1 [1], the “inhibition of HIV-1 infection” value is recorded as 60-70%. Further, the “ceramide levels following enzymatic activity” value in the data set with ceramide [2] (sphingomyelinase pretreated cells) is “increased”.

As to `CC1=C(/C=C/C(C)=C/C=C/C(C)=C/C(=O)Nc2ccc(O)cc2)C(C)(C)CCC1` [4-HPR compound, N-(4-hydroxyphenyl)retinamide], the “inhibition of Sendai virus fusion (R18 fluorescence dequenching)” value with Sendai virus was “dose dependent inhibition”. The figures for the CCR5 expression in the data set on CCR5 (2 μM), in the data set on CCR5 (5 μM) and in the data set on CCR5 (10 μM) were 60%, 30% and 7%, respectively. Moreover, the increase in ceramide in the data set on ceramide [3] is recorded as 1.12 fold; in the data set on ceramide [2] (HeLa cells, 5 uM), 1.7 fold. For the same molecule, in the data set with HIV-1 [1] (X4 (NL4-3, MN), R5 (Bal, JRCSF) and primary isolates, FIG. 3b), the “inhibition of HIV-1 isolates” value was “dose-dependent inhibition”. Moreover, the inhibition of fusion in the data set with HIV-1 gp160 (HXB2) was 20%. Further, in the data set with CXCR4, the CXCR4 expression is 18%. Further, the “CD4 expression (control level 100%)” value in the data set with CD4 (2 μM) is reported as 70%; in the data set on CD4 (5 μM), 57%; in the data set on CD4 (10 μM), 27%. Besides, in the data set on VSV pseudotyped HIV-1, the “infectivity of VSV pseudotyped HIV-1” value is recorded as “not impaired”. Besides, the “HIV-1 infection of macrophages, CCR5 tropic isolate (BaL)” value with HIV-1 [4] (FIG. 6A) is “Infection inhibition was observed”. The “HIV-1 infection of macrophages, primary isolate” value with HIV-1 [4] (FIG. 6B) was “Infection inhibition was observed”. The toxicity result in the data set with cells was “minimal toxicity”.
